Reference: patent US10167262B2, “Herbicidal substituted 3-arylpyrazoles” (FMC CORPORATION, priority 2014, dated 2019)

Legend:
Type in all cases: in vivo
[1] = test system: waterhemp_RES1, (ALS & Triazine resistant common waterhemp, Amaranthus rudis); test: Test E postemergence greenhouse test, plant response rating 0-100; conditions: scale 0 to 100
How it was run: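 Resistant waterhemp biotypes grown in peat/vermiculite medium and treated postemergence at 2–18 cm height (1- to 4-leaf stage). Kept in greenhouse 14 to 21 days, then visually rated against untreated controls on a 0–100 scale (0 no effect, 100 complete control).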

[2] = test system: fall panicum (Panicum dichotomiflorum); test: Test E pre-/postemergence greenhouse test, plant response rating 0-100; conditions: scale 0 to 100; for pest or weed control at 125 g/ha / pest or weed control at 500 g/ha / pest or weed control at 31 g/ha / pest or weed control at 62 g/ha / pest or weed control at 250 g/ha: Panicum dichotomiflorum, post-emergence; for pest or weed control at 125 g/ha / pest or weed control at 500 g/ha / pest or weed control at 31 g/ha / pest or weed control at 62 g/ha / pest or weed control at 250 g/ha / Plant response rating, Panicum, Fall: Postemergence; for Panicum, Fall plant response rating: Preemergence
How it was run: (§1)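 Seeds sown in silt loam soil received preemergence treatment with compound in a non-phytotoxic solvent mixture containing surfactant. Postemergence, plants at 2–18 cm (1- to 4-leaf stage) in peat/vermiculite medium were sprayed with the same formulation. Visual injury versus untreated controls was rated 0–100 after 14 to 21 days in the greenhouse.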

[3] = test system: field bindweed (Convolvulus arvensis); test: as above; conditions: scale 0 to 100; for pest or weed control at 125 g/ha / pest or weed control at 500 g/ha / pest or weed control at 31 g/ha / pest or weed control at 62 g/ha / pest or weed control at 250 g/ha: Convolvulus arvensis, post-emergence; for pest or weed control at 125 g/ha / pest or weed control at 500 g/ha / pest or weed control at 31 g/ha / pest or weed control at 62 g/ha / pest or weed control at 250 g/ha / Plant response rating, Field Bindweed: Postemergence; for Field Bindweed plant response rating: Preemergence
How it was run: as §1

[4] = test system: giant foxtail (Setaria faberii); test: as above; conditions: Preemergence, scale 0 to 100
[5] = test system: large (Lg) crabgrass (Digitaria sanguinalis); test: as above; conditions: Preemergence, scale 0 to 100
[6] = test system: green foxtail (Setaria viridis); test: as above; conditions: Preemergence, scale 0 to 100
[7] = test system: yellow nutsedge (Cyperus esculentus); test: as above; conditions: Preemergence, scale 0 to 100
[8] = test system: johnsongrass (Sorghum halepense); test: as above; conditions: Preemergence, scale 0 to 100
[9] = test system: goosegrass (Eleusine indica); test: as above; conditions: Preemergence, scale 0 to 100
[10] = test system: morningglory (Ipomoea coccinea); test: as above; conditions: Preemergence, scale 0 to 100
[11] = test system: ragweed (common ragweed, Ambrosia elatior); test: as above; conditions: Preemergence, scale 0 to 100
How it was run: as §1

[12] = test system: velvetleaf (Abutilon theophrasti); test: as above; conditions: Preemergence, scale 0 to 100
How it was run: as §1

kochia (Kochia scoparia) = test: as above; conditions: Preemergence, scale 0 to 100
How it was run: as §1

[13] = test system: surinam grass (Brachiaria decumbens); test: as above; conditions: Preemergence, scale 0 to 100
How it was run: as §1

[14] = test system: smartweed (ladysthumb smartweed, Polygonum persicaria); test: as above; conditions: Preemergence, scale 0 to 100

Compound: COC(OC)(c1ccccc1)c1c[nH]nc1-c1cc(Cl)cc(Cl)c1 [Compound 13, 3-(3,5-dichlorophenyl)-4-(dimethoxyphenylmethyl)-1H-pyrazole]
- Plant response rating, Waterhemp_RES1 ([1]; 125 g ai/ha): 90
- Plant response rating, Waterhemp_RES1 ([1]; 500 g ai/ha): 100
- pest or weed control at 125 g/ha ([2]; 125 g ai/ha): 0%
- pest or weed control at 500 g/ha ([2]; 500 g ai/ha): 0%
- pest or weed control at 125 g/ha ([3]; 125 g ai/ha): 0%
- pest or weed control at 500 g/ha ([3]; 500 g ai/ha): 10%

Compound: CCOC(OCC)(c1ccccc1)c1c[nH]nc1-c1cc(Cl)cc(Cl)c1 [Compound 14, 3-(3,5-dichlorophenyl)-4-(diethoxyphenylmethyl)-1H-pyrazole]
- Plant response rating, Waterhemp_RES1 ([1]; 31 g ai/ha): 90
- Plant response rating, Waterhemp_RES1 ([1]; 62 g ai/ha): 95
- Plant response rating, Waterhemp_RES1 ([1]; 125 g ai/ha): 95
- Plant response rating, Waterhemp_RES1 ([1]; 250 g ai/ha): 100
- Plant response rating, Waterhemp_RES1 ([1]; 500 g ai/ha): 100
- pest or weed control at 31 g/ha ([2]; 31 g ai/ha): 0%
- pest or weed control at 62 g/ha ([2]; 62 g ai/ha): 0%
- pest or weed control at 125 g/ha ([2]; 125 g ai/ha): 0%
- pest or weed control at 250 g/ha ([2]; 250 g ai/ha): 0%
- pest or weed control at 31 g/ha ([3]; 31 g ai/ha): 0%
- pest or weed control at 62 g/ha ([3]; 62 g ai/ha): 0%
- pest or weed control at 125 g/ha ([3]; 125 g ai/ha): 0%
- pest or weed control at 250 g/ha ([3]; 250 g ai/ha): 0%
- pest or weed control at 500 g/ha ([3]; 500 g ai/ha): 0%

Compound: COCC(=O)n1cc(C(=O)c2ccccc2)c(-c2cc(Cl)cc(Cl)c2)n1 [Compound 16, 1-[4-benzoyl-3-(3,5-dichlorophenyl)-1H-pyrazol-1-yl]-2-methoxyethanone]
- Foxtail, Giant plant response rating ([4]; 31 g ai/ha): 0
- Foxtail, Giant plant response rating ([4]; 62 g ai/ha): 0
- Foxtail, Giant plant response rating ([4]; 125 g ai/ha): 0
- Foxtail, Giant plant response rating ([4]; 250 g ai/ha): 0
- Foxtail, Giant plant response rating ([4]; 500 g ai/ha): 0
- Crabgrass, Large plant response rating ([5]; 31 g ai/ha): 0
- Crabgrass, Large plant response rating ([5]; 62 g ai/ha): 0
- Crabgrass, Large plant response rating ([5]; 125 g ai/ha): 0
- Crabgrass, Large plant response rating ([5]; 250 g ai/ha): 0
- Crabgrass, Large plant response rating ([5]; 500 g ai/ha): 0
- Foxtail, Green plant response rating ([6]; 31 g ai/ha): 0
- Foxtail, Green plant response rating ([6]; 62 g ai/ha): 0
- Foxtail, Green plant response rating ([6]; 125 g ai/ha): 0
- Foxtail, Green plant response rating ([6]; 250 g ai/ha): 0
- Foxtail, Green plant response rating ([6]; 500 g ai/ha): 0
- Nutsedge, Yellow plant response rating ([7]; 31 g ai/ha): 0
- Nutsedge, Yellow plant response rating ([7]; 62 g ai/ha): 20
- Nutsedge, Yellow plant response rating ([7]; 125 g ai/ha): 35
- Nutsedge, Yellow plant response rating ([7]; 250 g ai/ha): 0
- Nutsedge, Yellow plant response rating ([7]; 500 g ai/ha): 0
- Johnsongrass plant response rating ([8]; 31 g ai/ha): 0
- Johnsongrass plant response rating ([8]; 62 g ai/ha): 0
- Johnsongrass plant response rating ([8]; 125 g ai/ha): 0
- Johnsongrass plant response rating ([8]; 250 g ai/ha): 0
- Johnsongrass plant response rating ([8]; 500 g ai/ha): 30
- Goosegrass plant response rating ([9]; 31 g ai/ha): 0
- Goosegrass plant response rating ([9]; 62 g ai/ha): 0
- Goosegrass plant response rating ([9]; 125 g ai/ha): 0
- Goosegrass plant response rating ([9]; 250 g ai/ha): 40
- Goosegrass plant response rating ([9]; 500 g ai/ha): 50
- Morningglory plant response rating ([10]; 31 g ai/ha): 0
- Morningglory plant response rating ([10]; 62 g ai/ha): 20
- Morningglory plant response rating ([10]; 125 g ai/ha): 20
- Morningglory plant response rating ([10]; 250 g ai/ha): 0
- Morningglory plant response rating ([10]; 500 g ai/ha): 40
- pest or weed control at 31 g/ha ([2]; 31 g ai/ha): 0%
- pest or weed control at 62 g/ha ([2]; 62 g ai/ha): 0%
- pest or weed control at 125 g/ha ([2]; 125 g ai/ha): 60%
- pest or weed control at 250 g/ha ([2]; 250 g ai/ha): 30%
- pest or weed control at 500 g/ha ([2]; 500 g ai/ha): 65%
- Panicum, Fall plant response rating ([2]; 31 g ai/ha): 0
- Panicum, Fall plant response rating ([2]; 62 g ai/ha): 0
- Panicum, Fall plant response rating ([2]; 125 g ai/ha): 0
- Panicum, Fall plant response rating ([2]; 250 g ai/ha): 0
- Panicum, Fall plant response rating ([2]; 500 g ai/ha): 0
- Ragweed plant response rating ([11]; 31 g ai/ha): 0
- Ragweed plant response rating ([11]; 62 g ai/ha): 0
- Ragweed plant response rating ([11]; 125 g ai/ha): 85
- Ragweed plant response rating ([11]; 250 g ai/ha): 90
- Ragweed plant response rating ([11]; 500 g ai/ha): 98
- pest or weed control at 31 g/ha ([3]; 31 g ai/ha): 0%
- pest or weed control at 62 g/ha ([3]; 62 g ai/ha): 0%
- pest or weed control at 125 g/ha ([3]; 125 g ai/ha): 0%
- pest or weed control at 250 g/ha ([3]; 250 g ai/ha): 0%
- pest or weed control at 500 g/ha ([3]; 500 g ai/ha): 0%
- Field Bindweed plant response rating ([3]; 31 g ai/ha): 0
- Field Bindweed plant response rating ([3]; 62 g ai/ha): 0
- Field Bindweed plant response rating ([3]; 125 g ai/ha): 0
- Field Bindweed plant response rating ([3]; 250 g ai/ha): 0
- Field Bindweed plant response rating ([3]; 500 g ai/ha): 30
- Velvetleaf plant response rating ([12]; 31 g ai/ha): 0
- Velvetleaf plant response rating ([12]; 62 g ai/ha): 40
- Velvetleaf plant response rating ([12]; 125 g ai/ha): 85
- Velvetleaf plant response rating ([12]; 250 g ai/ha): 100
- Velvetleaf plant response rating ([12]; 500 g ai/ha): 100
- Kochia plant response rating (kochia (Kochia scoparia); 31 g ai/ha): 0
- Kochia plant response rating (kochia (Kochia scoparia); 62 g ai/ha): 0
- Kochia plant response rating (kochia (Kochia scoparia); 125 g ai/ha): 0
- Kochia plant response rating (kochia (Kochia scoparia); 250 g ai/ha): 50
- Kochia plant response rating (kochia (Kochia scoparia); 500 g ai/ha): 75
- Surinam Grass plant response rating ([13]; 31 g ai/ha): 0
- Surinam Grass plant response rating ([13]; 62 g ai/ha): 0
- Surinam Grass plant response rating ([13]; 125 g ai/ha): 0
- Surinam Grass plant response rating ([13]; 250 g ai/ha): 0
- Surinam Grass plant response rating ([13]; 500 g ai/ha): 0
- Smartweed plant response rating ([14]; 31 g ai/ha): 0
- Smartweed plant response rating ([14]; 62 g ai/ha): 0
- Smartweed plant response rating ([14]; 125 g ai/ha): 100
- Smartweed plant response rating ([14]; 250 g ai/ha): 100
- Smartweed plant response rating ([14]; 500 g ai/ha): 100

Compound: Cn1cc(C(=O)c2cccs2)c(-c2cc(Cl)cc(Cl)c2)n1 [Compound 17]
- Plant response rating, Waterhemp_RES1 ([1]; 31 g ai/ha): 70
- Plant response rating, Waterhemp_RES1 ([1]; 62 g ai/ha): 70
- Plant response rating, Waterhemp_RES1 ([1]; 250 g ai/ha): 85
- Plant response rating, Waterhemp_RES1 ([1]; 500 g ai/ha): 85
- Plant response rating, Panicum, Fall ([2]; 31 g ai/ha): 0
- Plant response rating, Panicum, Fall ([2]; 62 g ai/ha): 0
- Plant response rating, Panicum, Fall ([2]; 125 g ai/ha): 0
- Plant response rating, Panicum, Fall ([2]; 250 g ai/ha): 0
- Plant response rating, Panicum, Fall ([2]; 500 g ai/ha): 0
- Plant response rating, Field Bindweed ([3]; 31 g ai/ha): 0
- Plant response rating, Field Bindweed ([3]; 62 g ai/ha): 10
- Plant response rating, Field Bindweed ([3]; 125 g ai/ha): 20
- Plant response rating, Field Bindweed ([3]; 250 g ai/ha): 30
- Plant response rating, Field Bindweed ([3]; 500 g ai/ha): 30
